The source of these data is ChEMBL document CHEMBL4725447, “De-risking Drug Discovery of Intracellular Targeting Peptides: Screening Strategies to Eliminate False-Positive Hits” (ACS Med Chem Lett, 2020).

Data set [1] deals with HCT-116. Briefly: Cytotoxicity against human HCT116 cells assessed as effect on cell membrane preincubated overnight measured after 4 hrs post stimulation by LDH release assay. Format: cell-based. For orientation: LDH in the medium is a marker of cell lysis.
Data set [2] has as its target Eukaryotic translation initiation factor 4E (Homo sapiens) (UniProt P06730). Briefly: Binding affinity to eIF4E (unknown origin) using FAM-labelled peptide as substrate in presence of Tween20 by fluorescence polarization assay. For orientation: In fluorescence polarisation assays a small probe gives low polarisation when free and higher when bound to something large.

The target is the same in data set [3]. Briefly: Binding affinity to eIF4E (unknown origin) using FAM-labelled peptide as substrate in absence of Tween20 by fluorescence polarization assay.
Data set [4] relates to HCT-116. Briefly: Cytotoxicity against human HCT116 cells assessed as effect on cell membrane preincubated overnight measured after 4 hrs post stimulation by LDH release assay relative to control. Format: cell-based. The following applies: hct-116, 4 h.
The target of data set [5] is E3 ubiquitin-protein ligase Mdm2 (Homo sapiens) (UniProt Q00987). Briefly: Binding affinity to MDM2 (unknown origin) using FAM-labelled peptide as substrate in absence of Tween20 by fluorescence polarization assay.
E3 ubiquitin-protein ligase Mdm2 (Homo sapiens), sequence (Q00987 whole entry, looked up): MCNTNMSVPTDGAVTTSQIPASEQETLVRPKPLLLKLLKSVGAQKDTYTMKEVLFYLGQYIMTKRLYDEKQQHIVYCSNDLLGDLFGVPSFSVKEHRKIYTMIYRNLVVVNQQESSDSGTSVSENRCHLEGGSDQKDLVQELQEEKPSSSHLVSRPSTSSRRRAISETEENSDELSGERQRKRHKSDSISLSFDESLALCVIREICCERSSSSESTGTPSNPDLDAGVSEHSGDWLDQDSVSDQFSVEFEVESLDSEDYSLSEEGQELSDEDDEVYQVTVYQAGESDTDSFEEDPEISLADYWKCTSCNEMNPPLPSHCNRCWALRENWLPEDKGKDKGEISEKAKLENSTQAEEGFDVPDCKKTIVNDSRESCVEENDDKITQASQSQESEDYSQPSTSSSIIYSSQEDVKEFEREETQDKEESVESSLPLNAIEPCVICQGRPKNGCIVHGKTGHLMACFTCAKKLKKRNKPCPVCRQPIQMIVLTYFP
The nature of data set [6]: Aggregation property of peptides assessed as stable aggregates at 10 uM by dynamic light scattering analysis. Format: physicochemical.
In data set [7] the target is E3 ubiquitin-protein ligase Mdm2 (Homo sapiens) (UniProt Q00987). Briefly: Binding affinity to MDM2 (unknown origin) using FAM-labelled peptide as substrate in presence of Tween20 by fluorescence polarization assay.
Data set [8] in a line: Aggregation property of FAM-labelled peptides assessed as diameter of aggregate size at 10 uM by dynamic light scattering analysis. Format: physicochemical.
For data set [9], the system named is GTPase KRas (Homo sapiens), P01116 [G12D]. Briefly: (§1) Binding affinity to KRAS G12D mutant (unknown origin) using FAM-labelled peptide as substrate in absence of Tween20 by fluorescence polarization assay.
GTPase KRas (Homo sapiens), P01116 [G12D], sequence (P01116 whole entry G12D, looked up): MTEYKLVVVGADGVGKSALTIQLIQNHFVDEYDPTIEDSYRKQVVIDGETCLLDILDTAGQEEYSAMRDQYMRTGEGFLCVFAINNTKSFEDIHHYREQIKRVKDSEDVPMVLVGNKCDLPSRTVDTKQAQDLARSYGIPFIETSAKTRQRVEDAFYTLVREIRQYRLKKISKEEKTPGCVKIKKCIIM
The test system is the same in data set [10]. Briefly: Binding affinity to KRAS G12D mutant (unknown origin) assessed as change in melting temperature by SYPRO orange dye based thermal shift assay.
Data set [11] shares this test system. Briefly: Binding affinity to KRAS G12D mutant (unknown origin) in presence of FAM-labelled peptide at 1 uM by surface plasmon resonance analysis. A general note: In SPR one partner is held on a chip, and binding of the other changes the refractive index at the surface.
The target of data set [12] is Eukaryotic translation initiation factor 4E (Homo sapiens) (UniProt P06730). Briefly: Binding affinity to eIF4E (unknown origin) in presence of peptides at 300 nM by surface plasmon resonance analysis.
Eukaryotic translation initiation factor 4E (Homo sapiens), sequence (P06730 whole entry): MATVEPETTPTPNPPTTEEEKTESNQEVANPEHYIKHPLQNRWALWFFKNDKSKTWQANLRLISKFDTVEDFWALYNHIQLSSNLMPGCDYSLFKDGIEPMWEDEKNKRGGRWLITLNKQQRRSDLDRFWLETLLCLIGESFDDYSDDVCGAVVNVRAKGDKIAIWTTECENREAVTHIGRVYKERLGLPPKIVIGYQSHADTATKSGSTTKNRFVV
For data set [13], the system named is GTPase KRas (Homo sapiens), P01116 [G12D]. Briefly: Binding affinity to KRAS G12D mutant (unknown origin) upto 1 uM by surface plasmon resonance analysis. The following applies: dose microM <=1.
Data set [14] shares this test system. Briefly: Binding affinity to KRAS G12D mutant (unknown origin) by isothermal titration calorimetry.
In a further data set the test system is A549. Briefly: Antiproliferation activity against human A549 cells assessed as measuring ATP content at > 20 uM measured after 72 hrs by CellTiter-Glo analysis. The following applies: dose microM >20, time 72.0 hrs. Format: functional, cell-based.
Data set [15] deals with Eukaryotic translation initiation factor 4E (Homo sapiens) (UniProt P06730). Briefly: Binding affinity to eIF4E (unknown origin) upto 1 uM by surface plasmon resonance analysis.
Data set [16] deals with E3 ubiquitin-protein ligase Mdm2 (Homo sapiens) (UniProt Q00987). Briefly: Binding affinity to MDM2 (unknown origin) in presence of FAM-labelled peptides at 1 uM by surface plasmon resonance analysis.
The target of data set [17] is Eukaryotic translation initiation factor 4E (Homo sapiens) (UniProt P06730). Briefly: Binding affinity to eIF4E (unknown origin) in presence of Fam-labelled peptides at 1 uM by surface plasmon resonance analysis.
The target in data set [18] is T1, GTPase KRas (Homo sapiens, UniProt P01116). Briefly: Inhibition of KRAS in human U2OS cells assessed as inhibition in phosphorylation of ERK at 20 uM incubated for 15 mins by Western blot analysis. Type of data set: cell-based.
Target sequence in this assay (P01116 whole entry, looked up): as the sequence (P01116 whole entry G12D, looked up) above, with D12G counted along it
For data set [19], the system named is GTPase KRas (Homo sapiens), P01116 [G12V]. Briefly: Binding affinity to KRAS G12V mutant (unknown origin) by isothermal titration calorimetry.
GTPase KRas (Homo sapiens), P01116 [G12V], sequence (P01116 whole entry G12V): as the sequence (P01116 whole entry G12D, looked up) above, with D12V counted along it
The target of data set [20] is E3 ubiquitin-protein ligase Mdm2 (Homo sapiens) (UniProt Q00987). Briefly: Binding affinity to MDM2 (unknown origin) upto 1 uM by surface plasmon resonance analysis. Conditions: dose microM <=1.
For a further data set, the system named is U2OS. Briefly: Antiproliferation activity against human U2OS cells assessed as measuring ATP content at > 20 uM measured after 72 hrs by CellTiter-Glo analysis. Type of data set: functional, cell-based. The following applies: dose microM >20, time 72.0 hrs.
Data set [21] addresses T1, GTPase KRas. Briefly: Binding affinity to wild type KRAS (unknown origin) using FAM-labelled peptide as substrate in presence of Tween20 by fluorescence polarization assay.
Target sequence in this assay (P01116 whole entry, looked up): as the sequence (P01116 whole entry G12D, looked up) above, with D12G counted along it
The species entered for another data set is Homo sapiens. Briefly: Binding affinity to KRAS Q61H mutant (unknown origin) using FAM-labelled peptide as substrate in presence of Tween20 by fluorescence polarization assay.
Data set [22] deals with T1, GTPase KRas. Briefly: Binding affinity to wild type KRAS (unknown origin) using FAM-labelled peptide as substrate in absence of Tween20 by fluorescence polarization assay.
Target sequence in this assay (P01116 whole entry): as the sequence (P01116 whole entry G12D, looked up) above, with D12G counted along it
The target of data set [23] is GTPase KRas (Homo sapiens, UniProt P01116, G12D). The description is as §1.
GTPase KRas (Homo sapiens, UniProt P01116, G12D), sequence (P01116 whole entry G12D): as the sequence (P01116 whole entry G12D, looked up) above

Calls of active or inactive are those of the source. No cut-off for these calls is given here. Where a SMILES comes first, the peptide text is derived from it. Bridges are numbered along the chain shown (N, C = ends). [ ]: non-standard residue; d: D form. Phe(4-F) = N[C@@H](Cc1ccc(F)cc1)C(=O)O; d2Nal = N[C@H](Cc1ccc2ccccc2c1)C(=O)O; S5 = C=CCCC[C@](C)(N)C(=O)O

A word on the EC50: it is the concentration giving half of the maximal effect. Consider `CC(=O)NCCCC[C@H](N)C(=O)N[C@@H](CCCCN)C(=O)N[C@@H](CCCNC(=N)N)C(=O)N[C@@H](Cc1ccc(O)cc1)C(=O)N[C@@H](CO)C(=O)N[C@@H](CCCNC(=N)N)C(=O)N[C@@]1(C)CCC/C=C/CCC[C@@](C)(C(=O)N[C@@H](Cc2ccccc2)C(N)=O)NC(=O)[C@H](C(C)C)NC(=O)[C@H](C(C)C)NC(=O)[C@H](Cc2ccccc2)NC1=O` (H-K(Ac)KRYSR[S5]FVV[S5]F-NH2; staple (E) 7-11), for which the EC50 in the data set on HCT-116 [1] stood at 20 µM.

Take `CC[C@H](C)[C@H](NC(=O)[C@]1(C)CCC/C=C/CCC[C@](C)(NC(=O)CNC(=O)[C@H](Cc2ccccc2)NC(=O)[C@H](Cc2ccccc2)NC(=O)[C@H](CCCNC(=N)N)NC(=O)[C@H](CCCNC(=N)N)NC(C)=O)C(=O)N[C@@H](Cc2ccc(O)cc2)C(=O)N[C@@H](CC(C)C)C(=O)N[C@@H]([C@@H](C)O)C(=O)N1)C(=O)N[C@@H](CC(C)C)C(=O)N[C@@H](CCCCN)C(=O)N[C@H](C(=O)N[C@@H](CCC(=O)O)C(=O)N[C@@H](CCC(=O)O)C(=O)NCC(=O)N[C@@H](CC(N)=O)C(N)=O)[C@@H](C)O`: the outcome in data set [2] and in [7] was inactive. Moreover, the result in data set [3], in [5] and in [9] was Active. Further, the figures for the Activity (in the data set with HCT-116 [4]; in [6]; in data set [8]) were below 10%, “Not Active” and 1200 nm, respectively.

Broadly, the ΔTm is the shift of the melting midpoint relative to a reference. For `CCCC[C@H]1NC(=O)[C@@H](Cc2ccc(F)cc2)NC(=O)[C@H](CCCNC(=N)N)NC(=O)[C@@H](Cc2ccc3ccccc3c2)NC(=O)[C@H](CCCNC(=N)N)NC(=O)[C@H](CCCNC(=N)N)NC(=O)[C@@H](CCCNC(=N)N)NC(=O)[C@@H](C)NC(=O)[C@H](C(C)(C)C)NC(=O)[C@H](Cc2c[nH]c3ccccc23)NC(=O)[C@H](CCC(N)=O)NC1=O`, the ΔTm in data set [10] was -5.9 °C.

Take `CC(=O)N[C@@H](CCCCN)C(=O)N[C@@H](CCCCN)C(=O)N[C@@H](CCCNC(=N)N)C(=O)N[C@@H](Cc1ccc(O)cc1)C(=O)N[C@@H](CO)C(=O)N[C@@H](CCCNC(=N)N)C(=O)NC(C)(C)C(=O)N[C@@H](CCC(N)=O)C(=O)N[C@@H](CC(C)C)C(=O)N[C@@H](CC(C)C)C(=O)NC(C)(C)C(=O)N[C@@H](CC(C)C)C(N)=O`: the result in data set [11] was inactive. For the same compound, the outcome in data set [12] was Active. Also, the Activity in the data set with HCT-116 [4] was below 10%.

As to `CCCC[C@H]1NC(=O)[C@H](Cc2ccc(F)cc2)NC(=O)[C@H](CCCNC(=N)N)NC(=O)[C@@H](Cc2ccc3ccccc3c2)NC(=O)[C@H](CCCNC(=N)N)NC(=O)[C@H](CCCNC(=N)N)NC(=O)[C@H](CCCNC(=N)N)NC(=O)[C@H](C)NC(=O)[C@H]([C@@H](C)O)NC(=O)[C@@H](Cc2c[nH]c3ccccc23)NC(=O)[C@@H](CCC(N)=O)NC1=O`, the outcome (in data set [13]; in data set [14]; in data set [15]; at GTPase KRas [18]; in [19]; in data set [20]) was inactive. Also, the outcome (in the data set with A549; in data set [16]; in data set [17]; in the data set on U2OS) was Active. The Activity entry in data set [6] is listed as “Not Active”. For the same compound, the EC50 in the data set on HCT-116 [1] was 30 µM.

As to `CC(=O)N[C@@H](CC(C)C)C(=O)N[C@H](C(=O)N[C@@H](Cc1ccccc1)C(=O)N[C@]1(C)CCCCCC/C=C/CCC[C@@](C)(C(=O)N[C@@H](CO)C(=O)N[C@@H](C)C(=O)N[C@@H](C)C(N)=O)NC(=O)[C@H](CC2CCC2)NC(=O)[C@H](CC(C)C)NC(=O)[C@H](CCC(N)=O)NC(=O)[C@H](Cc2c[nH]c3ccccc23)NC(=O)[C@H](Cc2ccc(O)cc2)NC(=O)[C@H](CCC(=O)O)NC1=O)[C@@H](C)O`, in the data set with HCT-116 [4], the Activity is on record as below 10%.

On to `C[C@H]1NC(=O)[C@H](CCCNC(=N)N)NC(=O)[C@H](Cc2c[nH]c3ccccc23)NC(=O)[C@H](CCCNC(=N)N)NC(=O)[C@H](Cc2ccc(F)cc2)NC(=O)[C@H](CCCNC(=N)N)NC(=O)[C@@H](Cc2ccc3ccccc3c2)NC(=O)[C@H](CCCNC(=N)N)NC(=O)[C@H](CCCNC(=N)N)NC(=O)[C@H](CCC(N)=O)NC1=O` (cyclo(RR[d2Nal]R[Phe(4-F)]RWR[dA]Q)), for which, in the data set on HCT-116 [4], the Activity is below 10%.

Take `C=CCCC[C@](C)(NC(=O)[C@H](CC(N)=O)NC(=O)[C@@H](NC(=O)[C@H](CC(C)C)NC(=O)[C@](C)(CCCC=C)NC(=O)[C@@H](NC(=O)CNC(=O)[C@H](Cc1ccccc1)NC(=O)[C@H](Cc1ccccc1)NC(=O)[C@H](CCCNC(=N)N)NC(=O)[C@H](CCCNC(=N)N)NC(C)=O)[C@@H](C)CC)[C@@H](C)O)C(=O)N[C@@H](CC(C)C)C(=O)N[C@@H](CCCCN)C(=O)N[C@H](C(=O)N[C@@H](CCC(=O)O)C(=O)N[C@@H](CCC(=O)O)C(=O)NCC(=O)N[C@@H](CC(N)=O)C(N)=O)[C@@H](C)O`: the EC50 with HCT-116 [1] was 8 µM.

With `CC(=O)N[C@@H](CC(C)C)C(=O)N[C@H](C(=O)N[C@@H](Cc1ccccc1)C(=O)N[C@]1(C)CCCCCC/C=C/CCC[C@@](C)(C(=O)N[C@H](CO)C(=O)N[C@H](C)C(=O)N[C@H](C)C(N)=O)NC(=O)[C@@H](CC2CCC2)NC(=O)[C@H](CC(C)C)NC(=O)[C@H](CCC(N)=O)NC(=O)[C@H](Cc2c[nH]c3ccccc23)NC(=O)[C@H](Cc2ccc(O)cc2)NC(=O)[C@H](CCC(=O)O)NC1=O)[C@@H](C)O`, in data set [11], the result was inactive.

Broadly, the Kd is the constant that tells how readily two partners part at equilibrium. Read a low Kd as higher affinity. As to `CC[C@H](C)[C@H](NC(=O)CNC(=O)[C@H](Cc1ccccc1)NC(=O)[C@H](Cc1ccccc1)NC(=O)[C@H](CCCNC(=N)N)NC(=O)[C@H](CCCNC(=N)N)NC(C)=O)C(=O)N[C@@]1(C)CCC/C=C/CCC[C@@](C)(C(=O)N[C@@H](CC(C)C)C(=O)N[C@@H](CCCCN)C(=O)N[C@H](C(=O)N[C@@H](CCC(=O)O)C(=O)N[C@@H](CCC(=O)O)C(=O)NCC(=O)N[C@@H](CC(N)=O)C(N)=O)[C@@H](C)O)NC(=O)[C@H](CC(N)=O)NC(=O)[C@H]([C@@H](C)O)NC(=O)[C@H](CC(C)C)NC1=O`, the outcome (at GTPase KRas [21]; in data set [11]; in [13]; in data set [14]; in the data set listed under Homo sapiens; in [15]) was inactive. For the same compound, the outcome in data set [20] was inactive. The outcome (in the data set on A549; in data set [3]; in data set [16]; in data set [5]; in data set [17]; in the data set on U2OS) was Active. Further, the Activity entry in [6] was “Not Active”; in data set [8] it was 350 nm. For the same compound, the EC50 in the data set with HCT-116 [1] turned out to be 10 µM. For the same compound, the Kd at GTPase KRas [22] and at GTPase KRas [23] was 0.43 µM throughout. Moreover, the inhibition result on GTPase KRas [18] is “Active”.
